Laboratory results from US4906621A, “Certain 2-carboxypiperidyl-alkylene phosphonic acids and esters thereof useful for the treatment of disorders responsive to N-methyl-D-aspartate receptor blockade” (Ciba-Geigy Corporation, priority 1987, dated 1990).
Values belong to the molecule of their own block, whether it stands above or below them.

Assays:
[1] = relative pharmacological activity of enantiomers (test not specified); settings: enantiomers of the compound of Example 2
[2] = test system: NMDA-type excitatory amino acid receptors; experiment: inhibition of NMDA-evoked 3H-acetylcholine release from rat striatal tissue slices; type: cell-based; settings: stimulation with 50 uM NMDA, read-out: IC50 in the in vitro NMDA-evoked 3H-ACh release test
Description: The inhibitory effect on the NMDA-type excitatory amino acid receptors is determined in vitro by measuring the inhibition of the NMDA-evoked ^3 H-acetylcholine (^3 H-ACh) release from corpus striatum tissue of rat brain, according to J. Lehmann and B. Scatton, Brain Research 252, 77-89 (1982) and Nature 297, 422-424 (1982).
Antagonists of NMDA-type excitatory amino acid receptors competitively antagonize NMDA-evoked ^3 H-acetylcholine (^3 H-ACh) release from corpus striatum tissue of the brain.
The inhibition of the NMDA-evoked ^3 H-acetylcholine (^3 H-ACh) release from rat striatal tissue slices by a compound of the invention is expressed as % of release of ^3 H-ACh in response to stimulation with 50 uM NMDA compared to control. Tests are two-tailed with a minimum of n=4 in each group. In IC50 values represent the concentration of test compound required to inhibit the NMDA-increased ^3 H-ACh release by 50%.

[3] = test system: DBA/2 mice; experiment: audiogenic-induced seizures in DBA/2 mice; type: in vivo; settings: Mus musculus, ip, 0.75 h, i.p. administration, read-out: ED50 in the audiogenic-induced seizure model
Description: Further indicative of the anticonvulsant activity, compounds of the invention are effective in preventing audiogenic-induced seizures in DBA/2 mice (Chapman et al., Arzneim.-Forsch. 34:1261, 1984).
The effect is determined as follows:
Forty-five minutes following compound or vehicle administration, mice are placed individually in a soundproof chamber. After a 30 second accommodation period, the mice are exposed to a sound stimulation of 110 dB for 1 minute or until the appearance of a tonic-clonic seizure. Control seizures consist of an initial wild running phase. The prevention of wild running is indicative of an anticonvulsant effect.
Test compounds in either distilled water solution or in a 3% (w/v) colloidal cornstarch suspension containing 5% (w/v) polyethyleneglycol 400 and 0.34% (w/v) Tween 80, are administered by oral intubation or intraperitoneally in a volume of 10 ml/kg of body weight.

[4] = Cook/Davidson conflict model for anxiolytic activity; type: in vivo; settings: ip; read-out: dose active in the Cook/Davidson test for anxiolytic activity
From the text: Indicative of anxiolytic activity, compounds of the invention are effective in the Cook/Davidson conflict model (Psychopharmacologia 15, 159-168 (1969).

[5] = test system: mongolian gerbil; experiment: mongolian gerbil ischemia model; type: in vivo; settings: 10 mg/Kg ip, administered either before or after the ischemia episode
From the text: The cerebral antiischemic activity, that is the effect of the compounds of the invention in preventing or reducing brain damage in mammals due to a transient cerebral ischemia (as in a stroke) can be determined in the mongolian gerbil ischemia model, e.g. the model described by T. Kirino, Brain Research 239, 57-69 (1982).
The inhibitory effect on the observed hyperactivity and on the degeneration of neurons in the hippocampus region of the brain following a 5-minute period of ischemia is measured.
The test compound is administered i.p. 15 minutes before the ischemia or 2, 4, and 6 hours post ischemia.

Structure (SMILES): O=C(O)[C@H]1C[C@@H](CP(=O)(O)O)CCN1 (single isomer, unassigned) [(-)-cis-4-phosphonomethyl-2-piperidinecarboxylic acid]
pharmacological activity relative to the other enantiomer [1]: more active enantiomer

IC50 [2]: ~8 µM
Structure (SMILES): O=C(O)[C@@H]1C[C@H](CP(=O)(O)O)CCN1 (relative stereo) [cis-4-phosphonomethyl-2-piperidinecarboxylic acid hyrdochloride]
ED50 [3]: ~1.8 mg/kg

Structure (SMILES): O=C(O)[C@H]1C[C@@H](CP(=O)(O)O)CCN1 (relative stereo) [cis-4-phosphonomethyl-2-piperidine-carboxylic acid]
minimal effective dose [4]: ~2 mg/kg
effect on degeneration of cerebral neurons in the hippocampus region of the brain [5]: reduces the degeneration of cerebral neurons
effect on ischemia-induced hyperactivity of the gerbil [5]: inhibits the ischemia-induced hyperactivity

Structure (SMILES): O=C(O)[C@H]1C[C@@H](CP(=O)(O)O)CCN1 (single isomer, unassigned) [(+)-cis-4-phosphonomethyl-2-piperidinecarboxylic acid]
pharmacological activity relative to the other enantiomer [1]: less active enantiomer
